Patent publication US20040180941A1, “3-(1-[3-(1,3-Benzothiazol-6-yl)propylcarbamoyl]cycloalkyl)propanoic acid derivatives as NEP inhibitors” (Pfizer Inc, priority 2003, published 2004)

Tests used:
[1] = biological target: T1, NEP (neutral endopeptidase EC.3.4.24.11), native enzyme isolated from kidneys (Homo sapiens, UniProt P08473); test: Assay of NEP peptidase activity (fluorogenic peptide substrate), IC50 determination; type: biochemical; settings: read-out: activity against NEP expressed as an IC50
T1 construct: NEP is isolated from kidneys following the method described by Kenny and Booth; from tissue
Description: Production of Native NEP Enzyme:
NEP is isolated from kidneys following the method described by Kenny and Booth (Booth, A. G. & Kenny, A. J. (1974) Biochem. J. 142, 575-581).
Assay of SEP or NEP Peptidase Activity
The peptidase activity of SEP or NEP is measured by monitoring its ability to proteolyse the synthetic peptide substrate Rhodamine green-Gly-Gly-dPhe-Leu-Arg-Arg-Val-Cys(QSY7)-βAla-NH2:
Reagents for the assay are first prepared as follows:
A substrate solution is made up by diluting a 2 mM/100% DMSO Rhodamine green-Gly-Gly-dPhe-Leu-Arg-Arg-Val-Cys(QSY7)-βAla-NH2 stock solution in 50 mM HEPES buffer pH7.4 (Sigma, UK) at a concentration of 2 μM.
An aliquot of SEP or NEP enzyme described above is thawed then diluted in 50 mM HEPES, pH7.4 containing 1 EDTA free protease inhibitor cocktail tablet (Roche Diagnostics, UK) per 25 ml. […]
(§1) In a black 384 well microtitre plate, 15 μl of enzyme solution is added to 15 μl of 4% DMSO solution. […] Following incubation a fluorescence measurement is taken (Ex485/Em538). BMG galaxy fluorescence reader (BMG Lab technologies, Offenberg, Germany).
(§2) The proteolytic activity of the enzyme corresponds to the fluorescence of the sample minus the fluorescence of the non-specific background blank.
(§3) A fluorescence measurement taken from 60 μl of product in a well on an identical microtitre plate may be taken. […]

[2] = biological target: T2, Recombinant SEP (soluble secreted endopeptidase) (Homo sapiens, UniProt Q495T6); test: Assay of SEP peptidase activity (fluorogenic peptide substrate), IC50 determination; type: biochemical; settings: ratio of SEP to NEP inhibition
T2 construct: made in house
T2 sequence (Q495T6 75-779 limits assumed): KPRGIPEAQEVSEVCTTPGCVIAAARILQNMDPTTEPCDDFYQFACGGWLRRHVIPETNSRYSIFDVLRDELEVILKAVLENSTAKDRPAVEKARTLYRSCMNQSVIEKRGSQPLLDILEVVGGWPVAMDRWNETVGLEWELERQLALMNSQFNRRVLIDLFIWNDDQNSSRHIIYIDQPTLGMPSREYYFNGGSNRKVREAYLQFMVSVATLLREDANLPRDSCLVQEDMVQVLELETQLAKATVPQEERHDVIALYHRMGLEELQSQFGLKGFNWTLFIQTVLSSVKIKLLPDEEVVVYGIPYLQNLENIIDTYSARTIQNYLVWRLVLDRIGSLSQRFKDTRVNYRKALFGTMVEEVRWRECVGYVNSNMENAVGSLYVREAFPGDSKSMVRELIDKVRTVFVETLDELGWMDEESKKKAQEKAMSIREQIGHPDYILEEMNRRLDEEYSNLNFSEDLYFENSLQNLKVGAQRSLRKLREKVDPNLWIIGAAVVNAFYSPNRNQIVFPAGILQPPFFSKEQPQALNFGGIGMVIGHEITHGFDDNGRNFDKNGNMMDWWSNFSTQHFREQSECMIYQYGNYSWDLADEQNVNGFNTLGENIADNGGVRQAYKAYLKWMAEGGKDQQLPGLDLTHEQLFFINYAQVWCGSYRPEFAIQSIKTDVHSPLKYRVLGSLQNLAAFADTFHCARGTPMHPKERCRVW
Description: Recombinant SEP enzyme is produced using one of two alternative methods:
Method 1: A culture of Chinese Hamster Ovary (CHO) cells is transfected with the plasmid NCIMB deposit number 41110 using the lipofectamine method as described in the lipofectamine reagent protocol (Invitrogen Ltd, Paisley, UK). The cell media is harvested at 24 or 48 hours post transfection, and cleared of cell debris by centrifugation at 3000 g for 5 min. The media is then dialyzed overnight at 4° C. against 50 mM HEPES pH7.4/10% glycerol, using a “slide a lyser” from Pierce and Warner, Chester UK. The dialyzed sample is then frozen in aliquots and stored under liquid nitrogen. […]
The peptidase activity of SEP or NEP is measured by monitoring its ability to proteolyse the synthetic peptide substrate Rhodamine green-Gly-Gly-dPhe-Leu-Arg-Arg-Val-Cys(QSY7)-βAla-NH2: […]
as §1, §2, §3

T1 sequence (P08473 whole entry): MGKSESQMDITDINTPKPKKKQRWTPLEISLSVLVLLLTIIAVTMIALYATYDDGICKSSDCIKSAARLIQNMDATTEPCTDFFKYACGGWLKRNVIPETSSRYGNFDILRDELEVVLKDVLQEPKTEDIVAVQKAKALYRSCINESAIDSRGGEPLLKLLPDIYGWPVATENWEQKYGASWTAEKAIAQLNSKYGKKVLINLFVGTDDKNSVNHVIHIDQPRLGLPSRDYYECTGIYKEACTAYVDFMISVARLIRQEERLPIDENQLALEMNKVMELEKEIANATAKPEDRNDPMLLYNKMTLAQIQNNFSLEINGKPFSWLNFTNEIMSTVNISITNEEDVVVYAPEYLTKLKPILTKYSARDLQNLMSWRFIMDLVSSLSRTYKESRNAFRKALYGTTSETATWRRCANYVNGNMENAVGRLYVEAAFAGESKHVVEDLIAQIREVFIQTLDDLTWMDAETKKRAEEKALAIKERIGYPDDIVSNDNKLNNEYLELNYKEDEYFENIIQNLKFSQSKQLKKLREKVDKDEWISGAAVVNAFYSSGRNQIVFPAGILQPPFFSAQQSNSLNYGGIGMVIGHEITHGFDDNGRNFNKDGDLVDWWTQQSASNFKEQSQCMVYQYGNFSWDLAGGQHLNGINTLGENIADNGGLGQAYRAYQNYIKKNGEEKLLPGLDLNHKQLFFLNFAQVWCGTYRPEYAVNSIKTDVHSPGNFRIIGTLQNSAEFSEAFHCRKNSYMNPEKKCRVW

Row | melting point [°C] | IC50 [1] [nM] | selectivity for NEP over SEP [2] [fold] | SMILES
1 | 105 to 106 | 1 | 1900 | Cc1nc2ccc(CCCNC(=O)C3(C[C@@H](C)C(=O)O)CCCC3)cc2s1 [Example 1, (R)-2-Methyl-3-(1-{[3-(2-methyl-1,3-benzothiazol-6-yl)propyl]carbamoyl}cyclopentyl)propanoic acid]
2 | 127.5 to 129.5 | – | – | CCc1nc2ccc(CCCNC(=O)C3(CCC(=O)O)CCCC3)cc2s1 [Example 2, 3-(1-{[3-(2-ethyl-1,3-benzothiazol-6-yl)propyl]carbamoyl}cyclopentyl)propanoic acid]
